± gives the standard deviation of the averaged measurements.
Legend:
U-2 OS [1] = assay: total intracellular glutathione (GSH + GSSG) relative to DMSO (% of control); higher = more glutathione; settings: 24 h
In short: (§1)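 Pin-tool treatment of U-2 OS cells began 24 h after seeding at 750 per well in white low-volume 384-well plates, using 20, 10 and 5 μM for most compounds and 0.4% DMSO, for 24 h at 37 °C. For the glutathione plates, GSH/GSSG-Glo reagents were diluted three-fold in PBS, and each plate held GSH standards. Total glutathione, GSSG and viability (CellTiter-Glo) were taken as luminescence on separate plates and are reported relative to vehicle or as a GSH:GSSG ratio after background and row/column correction.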

U-2 OS [2] = assay: AUC of culture confluence over time (live-cell imaging) (AUC (confluence % x time)); higher = more confluent culture (less growth inhibition)
In short: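 Live-cell imaging tracked confluence of U-2 OS cells grown in F-12K medium plus 10% FBS. After seeding at 750 cells per well in 384-well plates, cells received compounds by pin tool 24 h later, mostly at 20, 10 and 5 μM, with 0.2% DMSO. Plates stayed at 37 °C and were imaged every 4 h for up to 60 h. Each value is the area under the confluence-versus-time curve.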

U-2 OS [3] = assay: relative cell count vs DMSO (cell painting) (fraction of DMSO control); higher = more cells remaining (less cytotoxic); settings: 24 h
In short: (§2)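 U-2 OS cells were seeded at about 1,500 per well in 384-well plates and treated by pin tool for 24 h at 37 °C, usually at six 2-fold concentrations from 20 μM to 625 nM. After staining with MitoTracker, concanavalin A, phalloidin, wheat germ agglutinin, Hoechst and SYTO 14, plates were imaged on an Opera Phenix and features were extracted with CellProfiler and normalized to DMSO cells on the same plate. The activity score is the Mahalanobis distance from DMSO wells, and cell count is given relative to DMSO wells. Each value is the mean of four replicate plates.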

U-2 OS [4] = assay: cell painting activity score (Mahalanobis distance from DMSO wells); higher = stronger morphological phenotype; settings: 24 h
In short: as §2

U-2 OS [5] = assay: intracellular GSH:GSSG ratio (calculated); higher = more reduced glutathione pool; settings: 24 h
In short: as §1

U-2 OS [6] = assay: cell viability (CellTiter-Glo) relative to DMSO (% of control); higher = more viable; settings: 24 h
In short: as §1

SMILES	total intracellular glutathione (U-2 OS [1]; 5 µM)	total intracellular glutathione (U-2 OS [1]; 10 µM)	total intracellular glutathione (U-2 OS [1]; 20 µM)	AUC of culture confluence over time (U-2 OS [2]; 5 µM)	AUC of culture confluence over time (U-2 OS [2]; 10 µM)	AUC of culture confluence over time (U-2 OS [2]; 20 µM)	relative cell count (U-2 OS [3]; 0.625 µM)	relative cell count (U-2 OS [3]; 1.25 µM)	relative cell count (U-2 OS [3]; 2.5 µM)	relative cell count (U-2 OS [3]; 5 µM)	relative cell count (U-2 OS [3]; 10 µM)	relative cell count (U-2 OS [3]; 20 µM)	cell painting activity score (U-2 OS [4]; 0.625 µM)	cell painting activity score (U-2 OS [4]; 1.25 µM)	cell painting activity score (U-2 OS [4]; 2.5 µM)	cell painting activity score (U-2 OS [4]; 5 µM)	cell painting activity score (U-2 OS [4]; 10 µM)	cell painting activity score (U-2 OS [4]; 20 µM)	intracellular GSH:GSSG ratio (U-2 OS [5]; 5 µM)	intracellular GSH:GSSG ratio (U-2 OS [5]; 10 µM)	intracellular GSH:GSSG ratio (U-2 OS [5]; 20 µM)	cell viability (U-2 OS [6]; 5 µM)	cell viability (U-2 OS [6]; 10 µM)	cell viability (U-2 OS [6]; 20 µM)	total intracellular glutathione (U-2 OS [1]; 40 µM)	total intracellular glutathione (U-2 OS [1]; 80 µM)	AUC of culture confluence over time (U-2 OS [2]; 40 µM)	AUC of culture confluence over time (U-2 OS [2]; 80 µM)	relative cell count (U-2 OS [3]; 40 µM)	relative cell count (U-2 OS [3]; 80 µM)	cell painting activity score (U-2 OS [4]; 40 µM)	cell painting activity score (U-2 OS [4]; 80 µM)	intracellular GSH:GSSG ratio (U-2 OS [5]; 40 µM)	intracellular GSH:GSSG ratio (U-2 OS [5]; 80 µM)	cell viability (U-2 OS [6]; 40 µM)	cell viability (U-2 OS [6]; 80 µM)
CC1(C)CCC2=C(O1)c1ccccc1C(=O)C2=O	71.8 ± 4.9	56.2 ± 3.8	6.31 ± 1.1	27	19.8	20.1	1.05	0.993	1.08	0.933	0.767	0.227	3.9	4.86	5.01	5.34	9.42	18.4	15.5	11.1	3.75	79.8 ± 7.4	57 ± 15	17 ± 33												
O=C(Nc1nc(-c2ccccc2)ns1)c1cccs1	99.8 ± 3.8	98.1 ± 5.4	103 ± 7.2	42.6	48.1	43.5	0.94	0.902	0.915	0.929	0.917	0.914	4.56	4.47	2.86	3.95	3.58	4.52	16.9	13	23.8	95.9 ± 3.4	93.5 ± 3.8	97.5 ± 1.8												
CCN1CCN(c2ccc3nsnc3c2[N+](=O)[O-])CC1	100 ± 6.2	98.1 ± 3.7	91.3 ± 3.3	45	46.2	42.9	0.938	0.946	0.945	0.908	0.929	0.955	3.95	4.39	4.69	6.21	4.95	5.29	16.2	18.8	13.3	105 ± 5.4	103 ± 4.1	106 ± 5.4												
CCCCCCCc1ccc(CCc2cccc(O)c2C(=O)O)cc1	93.7 ± 3.8	93.1 ± 7.4	83.9 ± 4	41.6	34.5	31.5	1.05	1.11	1.12	1.11	1.11	0.741	4.31	3.72	4.79	5.56	4.29	6.6	21.3	17.1	15.3	98.6 ± 2.9	98.6 ± 4.4	94.4 ± 4.6	62.5 ± 9.8	30.7 ± 11	24.6	17.9	0.307	0.365	19.1	23.3	15.7	11.3	66.6 ± 7.9	17.1 ± 8.5
O=C1C=CC(=O)N1c1ccccc1	114 ± 9.5	23.6 ± 7.2	14.3 ± 6.1	13.1	14.2	13.5	1.02	1.06	0.8	0.602	0.224	0.317	4.85	4.24	9.29	14.7	19.6	16.3	20.1	4.06	17.8	81.7 ± 12	14.3 ± 4.6	4.32 ± 3.1												
C=CC(=O)Nc1ccc(CN2C(=O)N(c3cc(OC)cc(OC)c3)Cc3cnc(Nc4ccc(N5CCN(C)CC5)cc4)nc32)cc1	96.1 ± 3.3	93.1 ± 5	98.9 ± 4.6	44.2	37.3	27.8	0.983	0.946	0.955	0.951	0.83	0.673	6.58	8.57	8.77	10.2	12.1	22.1	13.6	16.7	12.9	91 ± 4.1	79.2 ± 3.3	69.2 ± 8.3												
O=C(/C(C(N1CC2=CC=CC=C2)=O)=C/C3=C(C)C=C(O)C=C3C)N(CC4=CC=CC=C4)C1=O	99.8 ± 4.9	98.5 ± 2.1	104 ± 5.8	50.9	49.8	46.2	0.901	0.839	0.861	0.841	0.776	0.292	3.82	5.14	5.14	4.49	9.6	10.8	21.3	22.8	29.1	97 ± 6.9	98.1 ± 2.9	102 ± 6.1	77.3 ± 11	27.7 ± 8	34.6	12.1	0.419	0.0657	8.64	16.5	19.1	12.4	70 ± 23	14.7 ± 7.9
COc1ccc(/C(Cl)=C(\C=O)c2ccc(OC)cc2)cc1	125 ± 6.9	125 ± 4.8	111 ± 2.4	45.3	38.1	35.7	1	0.996	1.01	0.987	0.98	0.996	6.88	4.52	5.61	10.1	11.3	12	20.2	16.5	15.7	101 ± 3.7	102 ± 3.2	99.8 ± 6.2	76.7 ± 2.6	79.8 ± 4.3							7.85	9.31	77.1 ± 5	69.9 ± 4.5
CCCCCCCCCCCCCCCc1cccc(O)c1C(=O)O	105 ± 3.3	94.7 ± 4.2	98.8 ± 4.7	42.7	53.4	52.9	1.09	1.09	1.13	1.05	1.01	1.05	3.17	3.13	3.54	3.63	4.51	3.58	19	18.3	24.7	102 ± 3	106 ± 5.8	100 ± 2.9	95.5 ± 3.8	96.7 ± 3.9	51.2	40.9	0.326	0.342	12.9	21	19.7	18.1	104 ± 4.9	101 ± 5.3
Cc1onc(C(=O)N2CCN(C(c3ccc(Cl)cc3)c3ccc(Cl)cc3)CC2)c1[N+](=O)[O-]	107.3 ± 0.95	110 ± 4.7	107 ± 4.3	31.1	29.2	28.8	0.903	0.945	0.883	0.853	0.9	0.81	8.18	8.49	10.6	9.26	11.2	11.3	21	19.2	16.3	88.8 ± 4.4	92.4 ± 4.1	84.1 ± 6.2												
Cn1c(=O)n(-c2ccc(C(C)(C)C#N)cc2)c2c3cc(-c4cnc5ccccc5c4)ccc3ncc21	71.3 ± 4.7	70.8 ± 2.6	68.2 ± 2.1	31.4	28.4	27.6	0.853	0.819	0.802	0.83	0.788	0.765	11.8	12.3	12.8	12.8	12.6	12.8	23.9	22.6	29.4	68.1 ± 3.9	62.4 ± 1.9	63.2 ± 3.4												

— the supplement of paper PMC10011410
